ChEMBL document CHEMBL4622954, “Structural manipulation of aporphines via C10 nitrogenation leads to the identification of new 5-HT7AR ligands” (Bioorg Med Chem, 2020)
pIC50, pKi: −log10 of the molar value. Counter-ions that a name gives are not always drawn.

Experiments:
[1] = biological target: T1, 5-hydroxytryptamine receptor 7 (Homo sapiens, UniProt P34969)
Description: (§2) Displacement of [3H]-LSD from human 5-HT7A receptor expresssed in stable HEK cell membrane incubated for 90 mins by microbeta counting method

[2] = biological target: T2, 5-hydroxytryptamine receptor 6 (Homo sapiens, UniProt P50406); test: Displacement of [3H]-LSD from human 5-HT6 receptor expresssed in stable HEK cell membrane incubated for 90 mins by microbeta counting method
[3] = biological target: T2, 5-hydroxytryptamine receptor 6
[4] = biological target: 5-hydroxytryptamine receptor 2A (Homo sapiens, UniProt P28223); conditions: for pKi: read-out: Ki;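 on all read-outs here: [3H]-Ketanserin displacement from the 5-HT2A receptor after 90 min incubation, with bound label read by MicroBeta counting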
Description: Displacement of [3H]-Ketanserin from 5-HT2A receptor (unknown origin) incubated for 90 mins by microbeta counting method

[5] = biological target: T3, 5-hydroxytryptamine receptor 1A (Homo sapiens, UniProt P08908); test: biochemical
T3 sequence (P08908 whole entry): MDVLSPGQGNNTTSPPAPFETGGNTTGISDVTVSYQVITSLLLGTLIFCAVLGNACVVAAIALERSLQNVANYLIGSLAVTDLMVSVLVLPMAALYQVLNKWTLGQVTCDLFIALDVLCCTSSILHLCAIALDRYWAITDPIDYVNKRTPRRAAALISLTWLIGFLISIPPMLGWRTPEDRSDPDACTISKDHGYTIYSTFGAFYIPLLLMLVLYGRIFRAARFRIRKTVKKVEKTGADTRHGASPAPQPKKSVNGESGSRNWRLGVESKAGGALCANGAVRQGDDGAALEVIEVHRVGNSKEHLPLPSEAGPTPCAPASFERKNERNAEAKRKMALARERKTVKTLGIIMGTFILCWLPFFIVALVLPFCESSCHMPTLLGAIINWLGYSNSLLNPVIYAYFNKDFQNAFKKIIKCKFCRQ

[6] = biological target: T1, 5-hydroxytryptamine receptor 7; remark: listed apart in the source
Description: as §2

[7] = biological target: T2, 5-hydroxytryptamine receptor 6; test: biochemical
[8] = biological target: T1, 5-hydroxytryptamine receptor 7; test: biochemical
Description: as §2

[9] = biological target: T3, 5-hydroxytryptamine receptor 1A; conditions: cho
[10] = biological target: T4, 5-hydroxytryptamine receptor 1A (Homo sapiens) (UniProt P08908); conditions: CHO
T4 sequence (whole entry): T3 sequence (P08908 whole entry)

[11] = biological target: T5, D(2) dopamine receptor (Homo sapiens, UniProt P14416); test: biochemical
[12] = biological target: T6, D(4) dopamine receptor (Homo sapiens, UniProt P21917); test: (§1) Displacement of [3H]-N-Methylspiperone from human dopamine D4 receptor expressed in stable HEK cells incubated for 90 mins by microbeta counting method; assay type: cell-based
T6 sequence (P21917 whole entry): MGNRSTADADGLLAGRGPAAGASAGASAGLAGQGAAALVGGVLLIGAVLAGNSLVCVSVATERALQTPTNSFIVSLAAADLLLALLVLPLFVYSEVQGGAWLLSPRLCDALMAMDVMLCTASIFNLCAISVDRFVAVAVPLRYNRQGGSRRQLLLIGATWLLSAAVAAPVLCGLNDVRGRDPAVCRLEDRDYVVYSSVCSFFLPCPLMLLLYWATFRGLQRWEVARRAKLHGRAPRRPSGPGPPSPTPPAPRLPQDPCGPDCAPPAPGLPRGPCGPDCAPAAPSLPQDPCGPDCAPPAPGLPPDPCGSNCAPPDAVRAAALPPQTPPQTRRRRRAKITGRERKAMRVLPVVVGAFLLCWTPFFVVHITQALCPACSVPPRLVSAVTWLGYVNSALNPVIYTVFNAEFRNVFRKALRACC

[13] = biological target: D(3) dopamine receptor (Homo sapiens, UniProt P35462)
Description: Displacement of [3H]-N-Methylspiperone from dopamine D3 receptor (unknown origin) incubated for 90 mins by microbeta counting method

[14] = biological target: D(1B) dopamine receptor (Homo sapiens, UniProt P21918); test: Binding affinity to human dopamine D5 receptor expressed in HEKT cells incubated for 90 mins by microbeta counting method; assay type: cell-based
[15] = biological target: T7, D(1A) dopamine receptor (Homo sapiens, UniProt P21728); test: biochemical
[16] = biological target: T1, 5-hydroxytryptamine receptor 7; test: Antagonist activity at human recombinant 5-HT7 receptor expressed in CHOK1 Hunter cell preincubated for 30 mins followed by incubation with agonist for 30 to 60 mins by hit-hunter cAMP assay based chemiluminescence analysis; assay type: functional, CHO-K1
[17] = biological target: T5, D(2) dopamine receptor; conditions: fibroblast
[18] = biological target: T7, D(1A) dopamine receptor
[19] = biological target: T5, D(2) dopamine receptor; test: Displacement of [3H]-N-Methylspiperone from human dopamine D2 receptor expressed in stable fibroblast cells incubated for 90 mins by microbeta counting method
[20] = biological target: T8, D(4) dopamine receptor (Homo sapiens) (UniProt P21917); test: as §1; assay type: cell-based
T8 sequence (whole entry): T6 sequence (P21917 whole entry)

[21] = biological target: T7, D(1A) dopamine receptor; test: Displacement of [3H]-SCH23390 from human dopamine D1 receptor expressed in HEKT cells incubated for 90 mins by microbeta counting method
[22] = species: Homo sapiens; test: Selectivity index, ratio of Ki for human 5-HT7A receptor expressed in stable HEK cell membrane to Ki for human 5-HT1A receptor expresssed in stable CHO cell membrane incubated for 90 mins by microbeta counting method; assay type: cell-based

T5 sequence (P14416 whole entry): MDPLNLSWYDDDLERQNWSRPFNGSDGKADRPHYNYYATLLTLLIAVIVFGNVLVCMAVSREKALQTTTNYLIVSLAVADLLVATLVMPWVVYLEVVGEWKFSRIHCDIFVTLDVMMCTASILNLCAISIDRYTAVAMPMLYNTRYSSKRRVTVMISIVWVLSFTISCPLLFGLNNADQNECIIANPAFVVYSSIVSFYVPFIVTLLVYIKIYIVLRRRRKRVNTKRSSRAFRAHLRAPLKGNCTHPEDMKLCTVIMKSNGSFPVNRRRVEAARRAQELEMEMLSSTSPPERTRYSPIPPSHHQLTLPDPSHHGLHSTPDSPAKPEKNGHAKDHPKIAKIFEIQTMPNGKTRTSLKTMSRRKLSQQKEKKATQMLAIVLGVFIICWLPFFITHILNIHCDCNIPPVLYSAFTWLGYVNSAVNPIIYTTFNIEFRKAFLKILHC
T2 sequence (P50406 whole entry): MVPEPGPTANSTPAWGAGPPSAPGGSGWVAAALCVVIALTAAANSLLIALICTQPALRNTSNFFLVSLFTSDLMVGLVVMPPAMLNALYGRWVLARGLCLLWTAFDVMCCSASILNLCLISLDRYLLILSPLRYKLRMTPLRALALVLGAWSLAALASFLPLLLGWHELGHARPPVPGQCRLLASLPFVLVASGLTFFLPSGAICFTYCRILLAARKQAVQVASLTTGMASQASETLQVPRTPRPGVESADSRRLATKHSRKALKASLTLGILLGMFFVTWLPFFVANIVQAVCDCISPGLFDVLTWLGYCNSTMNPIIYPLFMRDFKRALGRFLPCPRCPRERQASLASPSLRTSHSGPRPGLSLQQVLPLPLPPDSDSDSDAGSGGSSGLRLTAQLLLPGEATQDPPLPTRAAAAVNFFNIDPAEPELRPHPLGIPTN
T7 sequence (P21728 whole entry): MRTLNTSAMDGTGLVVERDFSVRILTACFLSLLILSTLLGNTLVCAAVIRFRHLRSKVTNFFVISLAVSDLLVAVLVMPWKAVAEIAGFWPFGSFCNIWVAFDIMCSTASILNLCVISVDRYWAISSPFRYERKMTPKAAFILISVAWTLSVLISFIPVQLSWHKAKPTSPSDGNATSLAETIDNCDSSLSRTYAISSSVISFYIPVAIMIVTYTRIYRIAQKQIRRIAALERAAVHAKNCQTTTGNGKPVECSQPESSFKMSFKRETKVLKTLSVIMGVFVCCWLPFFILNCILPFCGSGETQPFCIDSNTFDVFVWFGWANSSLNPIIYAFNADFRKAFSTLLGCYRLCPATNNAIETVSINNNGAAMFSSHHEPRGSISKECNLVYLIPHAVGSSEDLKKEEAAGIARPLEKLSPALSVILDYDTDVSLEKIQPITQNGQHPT
Chain of 5-hydroxytryptamine receptor 2A (P28223 whole entry): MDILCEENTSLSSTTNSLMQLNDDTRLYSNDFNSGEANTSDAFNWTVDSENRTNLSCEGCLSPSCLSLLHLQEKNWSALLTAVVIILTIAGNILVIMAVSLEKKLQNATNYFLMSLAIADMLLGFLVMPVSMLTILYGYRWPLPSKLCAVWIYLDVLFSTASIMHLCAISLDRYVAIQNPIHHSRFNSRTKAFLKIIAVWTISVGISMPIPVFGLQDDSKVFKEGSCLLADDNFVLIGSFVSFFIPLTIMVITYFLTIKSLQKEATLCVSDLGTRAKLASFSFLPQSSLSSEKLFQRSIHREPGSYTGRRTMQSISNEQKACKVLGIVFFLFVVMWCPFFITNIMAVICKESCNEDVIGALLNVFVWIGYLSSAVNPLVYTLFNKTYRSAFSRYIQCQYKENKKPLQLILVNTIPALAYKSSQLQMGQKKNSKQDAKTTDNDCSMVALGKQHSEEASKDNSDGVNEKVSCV
Chain of D(1B) dopamine receptor (P21918 whole entry): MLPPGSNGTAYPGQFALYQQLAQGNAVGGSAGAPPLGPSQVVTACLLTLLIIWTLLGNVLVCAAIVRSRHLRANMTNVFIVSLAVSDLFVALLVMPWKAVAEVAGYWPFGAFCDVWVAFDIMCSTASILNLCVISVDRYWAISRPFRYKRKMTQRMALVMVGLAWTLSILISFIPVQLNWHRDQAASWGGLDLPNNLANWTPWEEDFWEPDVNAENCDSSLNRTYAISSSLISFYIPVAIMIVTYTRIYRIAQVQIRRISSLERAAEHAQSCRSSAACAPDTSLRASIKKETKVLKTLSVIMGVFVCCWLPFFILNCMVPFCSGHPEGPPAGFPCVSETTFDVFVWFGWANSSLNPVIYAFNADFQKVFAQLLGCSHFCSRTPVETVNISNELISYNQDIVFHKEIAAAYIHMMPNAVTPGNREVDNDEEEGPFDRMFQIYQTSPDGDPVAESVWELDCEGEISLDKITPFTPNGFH
Chain of D(3) dopamine receptor (P35462 whole entry): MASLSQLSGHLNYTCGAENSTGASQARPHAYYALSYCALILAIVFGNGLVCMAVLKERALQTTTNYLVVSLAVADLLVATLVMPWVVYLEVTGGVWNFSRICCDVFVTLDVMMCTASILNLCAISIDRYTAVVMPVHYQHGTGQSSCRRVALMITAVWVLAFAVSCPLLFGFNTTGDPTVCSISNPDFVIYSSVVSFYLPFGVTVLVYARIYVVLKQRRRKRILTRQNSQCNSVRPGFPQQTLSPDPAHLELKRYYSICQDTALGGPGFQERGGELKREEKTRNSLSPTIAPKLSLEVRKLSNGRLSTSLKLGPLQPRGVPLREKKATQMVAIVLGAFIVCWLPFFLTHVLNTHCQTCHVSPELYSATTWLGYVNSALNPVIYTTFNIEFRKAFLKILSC
T1 sequence (P34969 whole entry): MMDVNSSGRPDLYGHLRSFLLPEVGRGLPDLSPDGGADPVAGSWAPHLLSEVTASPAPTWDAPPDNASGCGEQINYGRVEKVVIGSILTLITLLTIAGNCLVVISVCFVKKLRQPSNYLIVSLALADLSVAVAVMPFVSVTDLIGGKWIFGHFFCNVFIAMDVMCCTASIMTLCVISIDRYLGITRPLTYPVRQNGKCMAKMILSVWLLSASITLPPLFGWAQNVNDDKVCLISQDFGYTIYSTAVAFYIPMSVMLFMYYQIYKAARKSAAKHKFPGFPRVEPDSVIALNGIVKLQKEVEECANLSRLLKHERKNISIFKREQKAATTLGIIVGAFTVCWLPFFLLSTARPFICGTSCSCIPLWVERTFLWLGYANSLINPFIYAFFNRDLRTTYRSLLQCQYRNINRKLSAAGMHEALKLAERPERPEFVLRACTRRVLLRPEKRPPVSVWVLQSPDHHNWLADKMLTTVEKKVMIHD

Structure (SMILES)	inhibition [2] [%]	Ki [3]	Ki [4]	pKi [5]	pKi [7]	pKi [8]	pKi [4]	other results
COc1cc2c3c(c1OCC1CC1)-c1cc(N)ccc1CC3N(C)CC2 (racemic)	–	–	–	–	6.88	6.98	6.96	Ki [9]: Not Active; inhibition [10]: < 50%
CN1CCc2cccc3c2C1Cc1ccc2nc(N)sc2c1-3 (racemic)	< 50	Not Active	–	6.73	–	8.00	5.98	pKi [11]: 5.76; pKi ([12]; read-out: Ki): 6.32; pKi [13]: 6.42; Ki [14]: Not Active; inhibition [14]: < 50%; pKi [15]: 5.94
CCCN1CCc2cccc3c2C1Cc1ccc(N(C)C)cc1-3 (racemic)	< 50	Not Active	Not Active	6.59	–	6.01	–	–
CCCC(=O)Nc1ccc2c(c1)-c1c(OCC3CC3)c(OC)cc3c1C(C2)N(C)CC3 (racemic)	–	–	–	6.37	6.49	6.40	6.18	–
C=CCOc1c(OC)cc2c3c1-c1cc(NC(=O)CCC)ccc1CC3N(C)CC2 (racemic)	–	–	–	6.33	6.70	6.73	6.35	–
COc1cc2c3c(c1OCC1CC1)-c1cc(N(C)C)ccc1CC3N(C)CC2 (racemic)	–	–	–	5.84	6.48	6.12	6.06	–
O=C(CCCN1CCC2(CC1)C(=O)NCN2c1ccccc1)c1ccc(F)cc1 [SPIPERONE HYDROCHLORIDE]	–	–	–	–	–	–	–	pIC50 [16]: 6.51
CCCC(=O)Nc1ccc2c(c1)-c1c(OC)c(OC)cc3c1C(C2)N(C)CC3 (racemic)	–	–	–	6.33	6.45	7.17	6.38	–
CN(C)c1ccc2c(c1)-c1cccc3c1C(C2)N(C)CC3 (racemic)	–	–	–	6.34	5.80	7.77	6.25	–
CCCN1CCc2cccc3c2C1Cc1ccc(N)cc1-3 (stereo not given)	< 50	Not Active	Not Active	7.52	–	7.20	–	–
C=CCOc1c(OC)cc2c3c1-c1cc(N(C)C)ccc1CC3N(C)CC2 (racemic)	–	–	–	–	6.99	6.51	6.50	Ki [9]: Not Active; inhibition [10]: < 50%
C#CCOc1c(OC)cc2c3c1-c1cc(NC(=O)CCC)ccc1CC3N(C)CC2 (racemic)	–	–	–	6.18	6.45	6.34	5.98	–
C#CCOc1c(OC)cc2c3c1-c1cc(NC(N)=O)ccc1CC3N(C)CC2 (racemic)	–	–	Not Active	6.04	6.39	6.91	–	–
COc1cc2c3c(c1OCC1CC1)-c1cc(NC(N)=O)ccc1CC3N(C)CC2 (racemic)	–	–	–	5.89	6.28	6.45	6.07	–
COc1cc2c3c(c1OCC1CC1)-c1cc(NC(C)=O)ccc1CC3N(C)CC2 (racemic)	–	–	–	5.81	5.82	6.20	6.01	–
COc1cc2c3c(c1OC)-c1cc(N(C)C)ccc1CC3N(C)CC2 (racemic)	–	–	–	5.80	6.90	7.14	6.53	–
CN1CCc2cccc3c2C1Cc1cc2sc(N)nc2cc1-3 (racemic)	–	Not Active	Not Active	7.64	–	–	–	Ki [12]: Not Active; Ki [17]: Not Active; Ki [14]: Not Active; Ki [18]: Not Active
COc1cc2c3c(c1OC)-c1cc(NC(N)=O)ccc1CC3N(C)CC2 (racemic)	–	–	Not Active	–	6.38	6.54	–	Ki [9]: Not Active; inhibition [10]: < 50%

The next lines start with results.

inhibition [2] [%]	Ki [3]	Ki [4]	pKi [5]	pKi [7]	pKi [8]	pKi [4]	Structure (SMILES)	other results
< 50	Not Active	Not Active	7.68	–	–	–	CCCN1CCc2cccc3c2C1Cc1ccc(NC(C)=O)cc1-3 (racemic)	inhibition [1]: < 50%; Ki [6]: Not Active
< 50	Not Active	Not Active	7.03	–	–	–	CCCN1CCc2cccc3c2C1Cc1ccc2nc(N)sc2c1-3 (racemic)	–
< 50	Not Active	Not Active	7.82	–	6.51	–	CCCC(=O)Nc1ccc2c(c1)-c1cccc3c1C(C2)N(CCC)CC3 (racemic)	–
–	–	Not Active	–	7.07	7.05	–	COc1cc2c3c(c1OC)-c1cc(NS(C)(=O)=O)ccc1CC3N(C)CC2 (racemic)	Ki [9]: Not Active; inhibition [10]: < 50%
–	–	–	6.29	6.66	7.51	5.88	C#CCOc1c(OC)cc2c3c1-c1cc(NS(C)(=O)=O)ccc1CC3N(C)CC2 (racemic)	–
–	Not Active	Not Active	7.31	–	–	–	CN1CCc2cccc3c2C1Cc1ccc(NC(N)=O)cc1-3 (racemic)	Ki [12]: Not Active; pKi [13]: 5.61; Ki [17]: Not Active; Ki [14]: Not Active; Ki [18]: Not Active
< 50	Not Active	Not Active	8.12	–	6.88	–	CCCN1CCc2cccc3c2C1Cc1cc2sc(N)nc2cc1-3 (racemic)	inhibition [19]: < 50%; inhibition [20]: < 50%; Ki [12]: Not Active; pKi [13]: 5.68; Ki [17]: Not Active; Ki [14]: Not Active; inhibition [14]: < 50%; Ki [18]: Not Active; inhibition [21]: < 50%; Ratio Ki [22]: 17
–	–	–	6.41	6.30	6.94	6.36	COc1cc2c3c(c1OCC1CC1)-c1cc(NS(C)(=O)=O)ccc1CC3N(C)CC2 (racemic)	–
< 50	Not Active	Not Active	7.64	–	6.70	–	CCCN1CCc2cccc3c2C1Cc1ccc(NS(C)(=O)=O)cc1-3 (racemic)	–
–	–	–	6.39	6.23	7.38	6.18	C=CCOc1c(OC)cc2c3c1-c1cc(NS(C)(=O)=O)ccc1CC3N(C)CC2 (racemic)	–
< 50	Not Active	Not Active	6.63	–	–	–	CCCN1CCc2cccc3c2C1Cc1ccc(NC(N)=O)cc1-3 (racemic)	inhibition [1]: < 50%; Ki [6]: Not Active
< 50	Not Active	Not Active	6.88	–	7.57	–	CN1CCc2cccc3c2C1Cc1ccc(NS(C)(=O)=O)cc1-3 (racemic)	–
